These results are taken from patent publication US20250041237A1, “HEMOGLOBIN-BASED NANOPARTICLES” (priority 2023, published 2025).

In one test the test system is MRSA. The experiment in a line: Mouse MRSA peritonitis model study. To be noted: treated i.v. 6 h after MRSA i.p. inoculation; monitored two weeks. The class given is in vivo, ICR mice.
Test [1] deals with murine or human neutrophils. The experiment in a line: Transwell chemotaxis assay. The class given is cell-based. To be noted: lipid radical scavenger added. An excerpt: Transwell chemotaxis assay. Cytoplasmic membranes of S. aureus Newman, MRSA, or MDRSA were isolated from lysostaphin-induced protoplasts as previously described. Briefly, the bacterial cells were washed and resuspended in buffered hypertonic sucrose, followed by treatment with lysostaphin to digest the cell walls. The resulting protoplasts were recovered and lysed in the dilute buffer to extract cytoplasmic membranes. To evaluate the chemotaxis ability of human or murine neutrophils towards S. aureus membranes, a 96-transwell plate with 3 μm pores was used (Corning, USA). The bottom wells were loaded with 200 μL of the bacterial cell membrane in chemotaxis buffer (49% HBSS, 0.5% human serum albumin, 4 mM L-glutamine, and 49% RPMI 1640), while the top wells contained 2×10^5 neutrophils in 75 μL chemotaxis buffer. The plate was incubated in the dark at 37° C. with 5% CO2 for 1.5 h. Neutrophils that had migrated into the bottom wells were lysed with elastase assay buffer to release the neutrophil elastase. The activity of elastase was measured using the chromogenic substrate, N-methoxysuccinyl-Ala-Ala-Pro-Val-p-nitroanilide, at a final concentration of 1 mM. The absorbance at 405 nm was measured using a GloMax-Multi microplate multimode reader (Promega, WI, USA) to determine the number of migrated neutrophils.

In the test with MRSA, `CN(C/C=C/c1ccccc1)Cc1cccc2ccccc12` [naftifine] had a survival of 12.5%.

On to `Clc1cccc(CN=C2Nc3ccccc3NC23CCNCC3)c1` [Liproxstatin-1], for which the “Hb-Naf@RBCM-induced neutrophil recruitment” value in test [1] is listed as “significantly inhibited”.
